Each block holds one compound with its values, some of them ahead of it.
Target: T1, Histone-lysine N-methyltransferase SMYD3 (Homo sapiens, UniProt Q9H7B4)
T1 sequence (Q9H7B4 whole entry): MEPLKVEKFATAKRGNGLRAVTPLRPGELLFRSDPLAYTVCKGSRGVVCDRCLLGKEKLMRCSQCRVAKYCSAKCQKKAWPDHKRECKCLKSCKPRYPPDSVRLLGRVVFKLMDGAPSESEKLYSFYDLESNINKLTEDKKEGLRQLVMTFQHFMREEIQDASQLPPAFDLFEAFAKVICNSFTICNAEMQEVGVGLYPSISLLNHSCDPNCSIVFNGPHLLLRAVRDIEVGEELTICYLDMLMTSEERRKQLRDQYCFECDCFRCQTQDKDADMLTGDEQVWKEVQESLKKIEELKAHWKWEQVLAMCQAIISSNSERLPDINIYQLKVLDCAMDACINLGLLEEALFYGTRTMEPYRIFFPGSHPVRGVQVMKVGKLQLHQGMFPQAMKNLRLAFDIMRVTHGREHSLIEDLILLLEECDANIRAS
Test: Binding affinity to SMYD3 (unknown origin) assessed as dissociation constant by GCI biosensor based analysis

Compound: Cc1cc(NC(=O)CCCNC(=O)c2ccsc2)no1
Kd: ~210 µM

Compound: Cc1ccsc1C(Cc1ccccc1)NC(=O)Cn1cncn1 (stereo unspecified)
Kd: ~130 µM

Compound: CCC(C(=O)NC1CCCC1)N(C)Cc1ncc(C)[nH]1 (stereo unspecified)
Kd: ~180 µM

Compound: O=CNc1ccccc1 [FORMANILIDE]
Kd: ~80 µM

The next compounds have a lower Kd than those just listed; values first:

Kd: ~3 µM
Compound: Cc1cc(N2CCC(NC(C)c3sccc3C)C2=O)n(C)n1 (stereo unspecified)

Kd: ~0.4 µM
Compound: Cc1cccc(C)c1NC(=O)CN1CCCC1c1ccccc1 (stereo unspecified)
